Results taken from US4560509A, “Antibiotic A39079 factor S-1” (Eli Lilly and Company, priority 1983, dated 1985).
Converted amounts (≈) assume the structure as drawn. Positions of bridges follow the written chain, without caps; N, C: chain ends. Non-standard residues stand in square brackets, D forms with d. Residues, ends and D or L forms follow the SMILES beside them. *: point of attachment. Ileψ(thiazoline)Cys = CC[C@H](C)[C@H](N)C1=N[C@H](C(=O)*)CS1; dOrn = NCCC[C@@H](N)C(=O)O

Assays:
Format in all cases: cell-based
[1] = system: Streptomyces spheroides NRRL 15600; assay: antibiotic sensitivity of the producing culture
Source text: In classifying the microorganism as a new strain of S. spheroides, the methods recommended by the International Streptomyces Project (ISP) for the characterization of Streptomyces species [E. B. Shirling and D. Gottlieb, "Methods of Characterization of Streptomyces species," Int. J. Syst. Bacteriol. 16(3), 313-340 (1966)] were followed along with certain supplementary tests.

Escherichia coli = assay: antibiotic activity of column fractions
Procedure: (§1) Whole broth (100 L), prepared in a manner similar to that of Example 1, Section B, was filtered using a filter aid (Hyflo Supercel, Johns-ManvilleCorp.). The filtered broth (86 L) is adjusted to pH 2 with 5N hydrochloric acid and then is extracted twice with ethyl acetate (1/2 volumes). The ethyl acetate extracts are concentrated under vacuum to give an oily residue (49 g). This residue is dissolved in methanol and placed on a 10-L Diaion HP-20 column (Mitsubishi Industries). The column is washed with water (500 ml) and eluted with acetonitrile:water (30 L of 3:7 and 50 L of 3:2) and acetonitrile (20 L). Elution is carried out at a rate of 100 ml/min., collecting 4-liter fractions. Fractions are tested for antibiotic activity against Micrococcus luteus, Escherichia coli, and Neurospora crassa.

Neurospora crassa = assay: antibiotic activity of column fractions
Procedure: as §1

[2] = system: Citrobacter freundii CF17; assay: standard agar-dilution MIC assay; conditions: Citrobacter freundii, CF17
Source text: (§2) Table V summarizes the minimal inhibitory concentrations (MIC) at which factor S-1 inhibits certain organisms as determined by standard agar-dilution assays. In Table V, the activity of factor S-1 is compared with that of rifampin.

[3] = system: Enterobacter aerogenes C32; assay: standard agar-dilution MIC assay; conditions: Klebsiella aerogenes, C32
Source text: as §2

[4] = system: Enterobacter aerogenes EB17; assay: standard agar-dilution MIC assay; conditions: Klebsiella aerogenes, EB17
Source text: as §2

[5] = system: Enterobacter cloacae 265A; assay: standard agar-dilution MIC assay; conditions: Enterobacter cloacae, 265A
Source text: as §2

Enterobacter cloacae EB5 = assay: standard agar-dilution MIC assay; conditions: Enterobacter cloacae, EB5
Source text: as §2

Escherichia coli EC14 = assay: standard agar-dilution MIC assay
Source text: as §2

Escherichia coli N10 = assay: standard agar-dilution MIC assay
Source text: as §2

Escherichia coli TEM = assay: standard agar-dilution MIC assay
Source text: as §2

[6] = system: Klebsiella pneumoniae KAE; assay: standard agar-dilution MIC assay; conditions: Klebsiella pneumoniae
Source text: as §2

[7] = system: Klebsiella pneumoniae X26; assay: standard agar-dilution MIC assay; conditions: Klebsiella pneumoniae, X26
Source text: as §2

[8] = system: Klebsiella pneumoniae X68; assay: standard agar-dilution MIC assay; conditions: Klebsiella pneumoniae, X68
Source text: as §2

Proteus inconstans PR33 = assay: standard agar-dilution MIC assay; conditions: Providencia alcalifaciens, PR33
Source text: as §2

Proteus morganii PR15 = assay: standard agar-dilution MIC assay; conditions: Morganella morganii, PR15
Source text: as §2

Proteus rettgeri C24 = assay: standard agar-dilution MIC assay; conditions: Providencia rettgeri, C24
Source text: as §2

[9] = system: Pseudomonas aeruginosa Ps18; assay: standard agar-dilution MIC assay
Source text: as §2

[10] = system: Pseudomonas aeruginosa X239; assay: standard agar-dilution MIC assay; conditions: Pseudomonas aeruginosa, X239
Source text: as §2

[11] = system: Pseudomonas aeruginosa X528; assay: standard agar-dilution MIC assay; conditions: Pseudomonas aeruginosa, X528
Source text: as §2

Salmonella typhi 1335 = assay: standard agar-dilution MIC assay; conditions: Salmonella enterica
Source text: as §2

Salmonella typhi X514 = assay: standard agar-dilution MIC assay; conditions: Salmonella enterica
Source text: as §2

Serratia marcescens SE3 = assay: standard agar-dilution MIC assay; conditions: Serratia marcescens, SE3
Source text: as §2

Serratia marcescens X99 = assay: standard agar-dilution MIC assay; conditions: Serratia marcescens, X99
Source text: as §2

Shigella sonnei N9 = assay: standard agar-dilution MIC assay
Source text: as §2

[12] = system: Staphylococcus aureus NRRL B313; assay: standard agar-dilution MIC assay; conditions: Staphylococcus aureus, NRRLB313
Source text: as §2

[13] = system: Staphylococcus aureus S13E; assay: standard agar-dilution MIC assay
Source text: as §2

[14] = system: Staphylococcus aureus V41; assay: standard agar-dilution MIC assay; conditions: Staphylococcus aureus, V41
Source text: as §2

[15] = system: Staphylococcus aureus X400; assay: standard agar-dilution MIC assay; conditions: Staphylococcus aureus, X400
Source text: as §2

[16] = system: Staphylococcus epidermidis 222; assay: standard agar-dilution MIC assay; conditions: Staphylococcus epidermidis, 222
Source text: as §2

[17] = system: Staphylococcus epidermidis EPI1; assay: standard agar-dilution MIC assay
Source text: as §2

[18] = system: Streptococcus faecium ATCC 9790; assay: standard agar-dilution MIC assay; conditions: Enterococcus faecium, ATCC9790
Source text: as §2

[19] = system: Streptococcus pneumoniae Park 1; assay: standard agar-dilution MIC assay; conditions: Streptococcus pneumoniae, PARK1
Source text: as §2

[20] = system: Streptococcus pyogenes C203; assay: standard agar-dilution MIC assay
Source text: as §2

[21] = system: Streptococcus sp. group D 9960; assay: standard agar-dilution MIC assay; conditions: Streptococcus
Source text: as §2

For `O=C(N[C@H](CO)[C@H](O)c1ccc([N+](=O)[O-])cc1)C(Cl)Cl` [Chloramphenicol], the “resistance / sensitivity of the culture to antibiotic” value (“resistance / sensitivity” below) [1] was “resistant” and the “activity against E. coli” value (Escherichia coli) was “active”.

With `C[C@@H]1C[C@@H]([C@H](O)CC2CC(=O)NC(=O)C2)C(=O)[C@@H](C)C1` [Cycloheximide] the “activity against N. crassa” value (Neurospora crassa) was “active”.

`CO[C@H]1/C=C/O[C@@]2(C)Oc3c(C)c(O)c4c(O)c(c(/C=N/N5CCN(C)CC5)c(O)c4c3C2=O)NC(=O)/C(C)=C\C=C\[C@H](C)[C@H](O)[C@@H](C)[C@@H](O)[C@@H](C)[C@H](OC(C)=O)[C@@H]1C` [Rifampin, reference compound] showed an MIC [2] of 16 µg/mL (≈ 19.4 µM), an MIC [3] of 32 µg/mL (≈ 38.9 µM) and an MIC [4] of 32 µg/mL (≈ 38.9 µM). It also gave an MIC [5] of 32 µg/mL (≈ 38.9 µM), an MIC (Enterobacter cloacae EB5) of 32 µg/mL (≈ 38.9 µM) and an MIC (Escherichia coli EC14) of 16 µg/mL (≈ 19.4 µM). For the same compound, the MIC (Escherichia coli N10) was 16 µg/mL (≈ 19.4 µM), the MIC (Escherichia coli TEM) was 128 µg/mL (≈ 156 µM) and the MIC [6] was 32 µg/mL (≈ 38.9 µM). It also gave an MIC [7] of 16 µg/mL (≈ 19.4 µM), an MIC [8] of 16 µg/mL (≈ 19.4 µM) and an MIC (Proteus inconstans PR33) of 16 µg/mL (≈ 19.4 µM). The MIC (Proteus morganii PR15) was 32 µg/mL (≈ 38.9 µM), the MIC (Proteus rettgeri C24) was 8 µg/mL (≈ 9.72 µM) and the MIC [9] was over 128 µg/mL. For the same compound, the MIC [10] was 16 µg/mL (≈ 19.4 µM), the MIC [11] was 16 µg/mL (≈ 19.4 µM) and the MIC (Salmonella typhi 1335) was 16 µg/mL (≈ 19.4 µM). The MIC (Salmonella typhi X514) was 16 µg/mL (≈ 19.4 µM), the MIC (Serratia marcescens SE3) was 64 µg/mL (≈ 77.8 µM) and the MIC (Serratia marcescens X99) was 32 µg/mL (≈ 38.9 µM). The MIC (Shigella sonnei N9) was 16 µg/mL (≈ 19.4 µM), the MIC [12] was 0.03 µg/mL (≈ 0.0365 µM) and the MIC [13] was 0.03 µg/mL (≈ 0.0365 µM). For the same compound, the MIC [14] was 0.015 µg/mL (≈ 0.0182 µM), the MIC [15] was 0.06 µg/mL (≈ 0.0729 µM) and the MIC [16] was 0.06 µg/mL (≈ 0.0729 µM). It also gave an MIC [17] of 0.06 µg/mL (≈ 0.0729 µM), an MIC [18] of 2 µg/mL (≈ 2.43 µM) and an MIC [19] of 0.125 µg/mL (≈ 0.152 µM). The MIC [20] was 0.25 µg/mL (≈ 0.304 µM), the MIC [21] was 2 µg/mL (≈ 2.43 µM) and the “resistance / sensitivity” value [1] was “resistant”.

In the case of `CC[C@H](C)[C@H](N)C1=N[C@H](C(=O)N[C@@H](CC(C)C)C(=O)N[C@H](CCC(=O)O)C(=O)N[C@H](C(=O)N[C@H]2CCCCNC(=O)[C@H](CC(N)=O)NC(=O)[C@@H](CC(=O)O)NC(=O)[C@H](Cc3cnc[nH]3)NC(=O)[C@@H](Cc3ccccc3)NC(=O)[C@H]([C@@H](C)CC)NC(=O)[C@@H](CCCN)NC2=O)[C@@H](C)CC)CS1` [bacitracin] ({Ileψ(thiazoline)Cys}-L[dE]IK[dOrn]I[dF]H[dD]N; lactam 4-C), the “resistance / sensitivity” value [1] is reported as “sensitive”.

With `CC(=O)OCC1=C(C(=O)O)N2C(=O)[C@@H](NC(=O)Cc3cccs3)[C@H]2SC1` [cephalothin] the “resistance / sensitivity” value [1] was “sensitive”.

In the case of `CC[C@H]1OC(=O)[C@H](C)[C@@H](O[C@H]2C[C@@](C)(OC)[C@@H](O)[C@H](C)O2)[C@H](C)[C@@H](O[C@@H]2O[C@H](C)C[C@H](N(C)C)[C@H]2O)[C@](C)(O)C[C@@H](C)C(=O)[C@H](C)[C@@H](O)[C@]1(C)O` [erythromycin], the “resistance / sensitivity” value [1] is reported as “sensitive”.

In the case of `CCC[C@@H]1C[C@@H](C(=O)N[C@@H]([C@H]2O[C@H](SC)[C@H](O)[C@@H](O)[C@H]2O)[C@@H](C)O)N(C)C1` [lincomycin], the “resistance / sensitivity” value [1] is reported as “resistant”.

In the case of `CCn1cc(C(=O)O)c(=O)c2ccc(C)nc21` [nalidixic acid], the “resistance / sensitivity” value [1] is reported as “resistant”.

In the case of `NC[C@@H]1O[C@H](O[C@H]2[C@@H](O)[C@H](O[C@@H]3[C@@H](O)[C@H](N)C[C@H](N)[C@H]3O[C@H]3O[C@H](CN)[C@@H](O)[C@H](O)[C@H]3N)O[C@@H]2CO)[C@H](N)[C@@H](O)[C@@H]1O` [neomycin], the “resistance / sensitivity” value [1] is reported as “sensitive”.

`CO[C@@H]1[C@@H](OC(N)=O)[C@@H](O)[C@H](Oc2ccc3c(O)c(NC(=O)c4ccc(O)c(CC=C(C)C)c4)c(=O)oc3c2C)OC1(C)C` [novobiocin] was tested, and the “resistance / sensitivity” value [1] was “sensitive”.

In the case of `CC1(C)S[C@@H]2[C@H](NC(=O)Cc3ccccc3)C(=O)N2[C@H]1C(=O)O` [penicillin G], the “resistance / sensitivity” value [1] is reported as “sensitive”.

`[H]/N=C(/N)N[C@H]1[C@H](O)[C@@H](O)[C@H](O[C@@H]2O[C@@H](C)[C@](O)(C=O)[C@H]2O[C@@H]2O[C@@H](CO)[C@H](O)[C@@H](O)[C@@H]2NC)[C@@H](N/C(N)=N\[H])[C@@H]1O` [streptomycin] was tested, and the “resistance / sensitivity” value [1] was “sensitive”.

With `Nc1ccc(S(=O)(=O)Nc2ncccn2)cc1` [sulfadiazine] the “resistance / sensitivity” value [1] was “sensitive”.

For `CN(C)[C@@H]1C(O)=C(C(N)=O)C(=O)[C@@]2(O)C(O)=C3C(=O)c4c(O)cccc4[C@@](C)(O)[C@H]3C[C@@H]12` [tetracycline], the “resistance / sensitivity” value [1] was “sensitive”.

In the case of `CN[C@H](CC(C)C)C(=O)N[C@H]1C(=O)N[C@@H](CC(N)=O)C(=O)N[C@H]2C(=O)N[C@H]3C(=O)N[C@H](C(=O)N[C@H](C(=O)O)c4cc(O)cc(O)c4-c4cc3ccc4O)[C@H](O)c3ccc(c(Cl)c3)Oc3cc2cc(c3O[C@@H]2O[C@H](CO)[C@@H](O)[C@H](O)[C@H]2O[C@H]2C[C@](C)(N)[C@H](O)[C@H](C)O2)Oc2ccc(cc2Cl)[C@H]1O` [vancomycin], the “resistance / sensitivity” value [1] is reported as “sensitive”.

In the case of gentamicin, the “resistance / sensitivity” value [1] is reported as “sensitive”.

In the case of polymyxin B, the “resistance / sensitivity” value [1] is reported as “sensitive”.
